Key:
[1] = xn = mol fraction of the nth substance listed; details: 318.15 K, 101 kPa, Liquid
[2] = excess molar enthalpy (molar enthalpy of mixing); xn = mol fraction of the nth substance listed; details: 318.15 K, 101 kPa, Liquid

CCCCCCCCCCCCC [tridecane] + CCC(=O)OC
Details | excess molar enthalpy [kcal/mol] | excess molar volume [m3/mol]
[1], x2 = 0.0687 | – | 3.33e-07
[1], x2 = 0.1431 | – | 6.43e-07
[1], x2 = 0.2538 | – | 1.057e-06
[1], x2 = 0.3537 | – | 1.323e-06
[1], x2 = 0.4366 | – | 1.462e-06
[1], x2 = 0.5144 | – | 1.543e-06
[1], x2 = 0.5811 | – | 1.548e-06
[1], x2 = 0.6387 | – | 1.514e-06
[1], x2 = 0.6932 | – | 1.429e-06
[1], x2 = 0.7403 | – | 1.32e-06
[1], x2 = 0.7836 | – | 1.217e-06
[1], x2 = 0.8229 | – | 1.075e-06
[1], x2 = 0.8583 | – | 9.26e-07
[1], x2 = 0.8914 | – | 7.83e-07
[1], x2 = 0.9212 | – | 6.29e-07
[1], x2 = 0.9596 | – | 4.05e-07
[1], x2 = 0.9748 | – | 2.5e-07
[2], x2 = 0.1102 | 0.152 | –
[2], x2 = 0.2079 | 0.264 | –
[2], x2 = 0.298 | 0.349 | –
[2], x2 = 0.3751 | 0.407 | –
[2], x2 = 0.4404 | 0.44 | –
[2], x2 = 0.4912 | 0.457 | –
[2], x2 = 0.5388 | 0.465 | –
[2], x2 = 0.5843 | 0.466 | –
[2], x2 = 0.624 | 0.459 | –
[2], x2 = 0.6309 | 0.456 | –
[2], x2 = 0.6687 | 0.44 | –
[2], x2 = 0.7093 | 0.414 | –
[2], x2 = 0.7493 | 0.382 | –
[2], x2 = 0.7925 | 0.336 | –
[2], x2 = 0.8368 | 0.283 | –
[2], x2 = 0.8813 | 0.224 | –
[2], x2 = 0.9269 | 0.152 | –
[2], x2 = 0.9664 | 0.0759 | –

CCCCCCCCCCCCC [tridecane] + CCCOC(=O)CC
Details | excess molar enthalpy [kcal/mol] | excess molar volume [m3/mol]
[1], x2 = 0.1068 | – | 3.54e-07
[1], x2 = 0.2003 | – | 6.1e-07
[1], x2 = 0.2831 | – | 7.8e-07
[1], x2 = 0.3626 | – | 8.99e-07
[1], x2 = 0.4343 | – | 9.83e-07
[1], x2 = 0.4988 | – | 1.001e-06
[1], x2 = 0.5633 | – | 1.013e-06
[1], x2 = 0.6197 | – | 9.68e-07
[1], x2 = 0.6738 | – | 9.29e-07
[1], x2 = 0.7241 | – | 8.44e-07
[1], x2 = 0.7705 | – | 7.66e-07
[1], x2 = 0.8135 | – | 6.6e-07
[1], x2 = 0.8558 | – | 5.36e-07
[1], x2 = 0.8941 | – | 4.18e-07
[1], x2 = 0.9306 | – | 2.67e-07
[1], x2 = 0.9641 | – | 1.43e-07
[2], x2 = 0.0771 | 0.0824 | –
[2], x2 = 0.1623 | 0.154 | –
[2], x2 = 0.248 | 0.217 | –
[2], x2 = 0.3288 | 0.264 | –
[2], x2 = 0.4032 | 0.294 | –
[2], x2 = 0.471 | 0.31 | –
[2], x2 = 0.5295 | 0.315 | –
[2], x2 = 0.5719 | 0.311 | –
[2], x2 = 0.5818 | 0.308 | –
[2], x2 = 0.6224 | 0.298 | –
[2], x2 = 0.6662 | 0.283 | –
[2], x2 = 0.7127 | 0.261 | –
[2], x2 = 0.7593 | 0.232 | –
[2], x2 = 0.8089 | 0.199 | –
[2], x2 = 0.8585 | 0.161 | –
[2], x2 = 0.9084 | 0.114 | –
[2], x2 = 0.9562 | 0.0607 | –
